Organism: Rattus norvegicus
Assay: Open TG-GATES - Regimen: Single
Assay type: toxicity, organism-based, Sprague-Dawley
Parameters: regimen Single, gender Male, age 6 weeks
Conditions: in vivo, po, 0 mg/kg, route gavage, dose level Control; for APTT / Bas / Eos / Fbg / Hb / Ht / Lym / MCH / MCHC / MCV / Mono / Neu / PT / Plat / RBC / Ret / WBC: tissue Blood; for KIDNEY_L / KIDNEY_R / KIDNEY_TOTAL: tissue Kidney; for LIVER: tissue Liver; for A/G / ALP / ALT / AST / BUN / CRE / Ca / Cl / DBIL / GLC / IP / K / LDH / Na / PL / RALB / TBIL / TC / TG / TP / gamma-GTP: tissue Plasma

Compound: CCN1CCCC1CNC(=O)c1cc(S(N)(=O)=O)ccc1OC (configuration not stated) [SULPIRIDE]
- TERMINAL_BW (3 h): 201.8 g
- APTT (3 h): 17.6 s
- Bas (3 h): 0%
- Eos (3 h): 0.6%
- Fbg (3 h): 247.8 mg/dL
- Hb (3 h): 13.4 g/dL
- Ht (3 h): 41.4%
- Lym (3 h): 80.2%
- MCH (3 h): 20.9 pg
- MCHC (3 h): 32.3%
- MCV (3 h): 64.8 fL
- Mono (3 h): 2.4%
- Neu (3 h): 16%
- PT (3 h): 14.1 s
- Plat (3 h): 117.7 x10_4/uL
- RBC (3 h): 639.8 x10_4/ul
- Ret (3 h): 7.5%
- WBC (3 h): 81.5 x10_2/uL
- KIDNEY_L (3 h): 0.9 g
- KIDNEY_R (3 h): 0.9 g
- KIDNEY_TOTAL (3 h): 1.9 g
- LIVER (3 h): 8.6 g
- A/G (3 h): 0.9
- ALP (3 h): 1902.2 IU/L
- ALT (3 h): 49 IU/L
- AST (3 h): 92.6 IU/L
- BUN (3 h): 10.6 mg/dL
- CRE (3 h): 0.2 mg/dL
- Ca (3 h): 11 mg/dL
- Cl (3 h): 105.8 meq/L
- DBIL (3 h): 0.01 mg/dL
- GLC (3 h): 177 mg/dL
- IP (3 h): 8.9 mg/dL
- K (3 h): 4.5 meq/L
- LDH (3 h): 173.6 IU/L
- Na (3 h): 140.8 meq/L
- PL (3 h): 116 mg/dL
- RALB (3 h): 2.4 g/dL
- TBIL (3 h): 0.074 mg/dL
- TC (3 h): 60.8 mg/dL
- TG (3 h): 50.2 mg/dL
- TP (3 h): 5.1 g/dL
- gamma-GTP (3 h): 1.6 IU/L
- TERMINAL_BW (6 h): 198.5 g
- APTT (6 h): 17.4 s
- Bas (6 h): 0.2%
- Eos (6 h): 0.8%
- Fbg (6 h): 276.2 mg/dL
- Hb (6 h): 13.3 g/dL
- Ht (6 h): 41.6%
- Lym (6 h): 79.4%
- MCH (6 h): 20.5 pg
- MCHC (6 h): 32%
- MCV (6 h): 64.1 fL
- Mono (6 h): 2.4%
- Neu (6 h): 16.4%
- PT (6 h): 13.5 s
- Plat (6 h): 123.5 x10_4/uL
- RBC (6 h): 649.6 x10_4/ul
- Ret (6 h): 8%
- WBC (6 h): 87.4 x10_2/uL
- KIDNEY_L (6 h): 0.9 g
- KIDNEY_R (6 h): 0.9 g
- KIDNEY_TOTAL (6 h): 1.8 g
- LIVER (6 h): 8.6 g
- A/G (6 h): 0.9
- ALP (6 h): 1354.6 IU/L
- ALT (6 h): 38.2 IU/L
- AST (6 h): 78 IU/L
- BUN (6 h): 9 mg/dL
- CRE (6 h): 0.2 mg/dL
- Ca (6 h): 10.7 mg/dL
- Cl (6 h): 105 meq/L
- DBIL (6 h): 0.01 mg/dL
- GLC (6 h): 192.2 mg/dL
- IP (6 h): 9.3 mg/dL
- K (6 h): 4.3 meq/L
- LDH (6 h): 105 IU/L
- Na (6 h): 141.2 meq/L
- PL (6 h): 128.6 mg/dL
- RALB (6 h): 2.5 g/dL
- TBIL (6 h): 0.072 mg/dL
- TC (6 h): 72.2 mg/dL
- TG (6 h): 53 mg/dL
- TP (6 h): 5.2 g/dL
- gamma-GTP (6 h): 1.8 IU/L
- TERMINAL_BW (9 h): 200.2 g
- APTT (9 h): 16.9 s
- Bas (9 h): 0.2%
- Eos (9 h): 1%
- Fbg (9 h): 302.8 mg/dL
- Hb (9 h): 13.3 g/dL
- Ht (9 h): 41.6%
- Lym (9 h): 74.2%
- MCH (9 h): 19.8 pg
- MCHC (9 h): 32%
- MCV (9 h): 62 fL
- Mono (9 h): 2.6%
- Neu (9 h): 21.6%
- PT (9 h): 13.5 s
- Plat (9 h): 126.7 x10_4/uL
- RBC (9 h): 670.8 x10_4/ul
- Ret (9 h): 7.8%
- WBC (9 h): 76.7 x10_2/uL
- KIDNEY_L (9 h): 0.9 g
- KIDNEY_R (9 h): 0.9 g
- KIDNEY_TOTAL (9 h): 1.8 g
- LIVER (9 h): 8.1 g
- A/G (9 h): 0.9
- ALP (9 h): 1441.6 IU/L
- ALT (9 h): 69 IU/L
- AST (9 h): 70.4 IU/L
- BUN (9 h): 7.6 mg/dL
- CRE (9 h): 0.2 mg/dL
- Ca (9 h): 10.7 mg/dL
- Cl (9 h): 105.4 meq/L
- DBIL (9 h): 0.006 mg/dL
- GLC (9 h): 170.8 mg/dL
- IP (9 h): 9.8 mg/dL
- K (9 h): 3.9 meq/L
- LDH (9 h): 132.4 IU/L
- Na (9 h): 141.4 meq/L
- PL (9 h): 125 mg/dL
- RALB (9 h): 2.5 g/dL
- TBIL (9 h): 0.074 mg/dL
- TC (9 h): 70.8 mg/dL
- TG (9 h): 61 mg/dL
- TP (9 h): 5.3 g/dL
- gamma-GTP (9 h): 1.4 IU/L
- TERMINAL_BW (24 h): 216.8 g
- APTT (24 h): 17.3 s
- Bas (24 h): 0.4%
- Eos (24 h): 1%
- Fbg (24 h): 278 mg/dL
- Hb (24 h): 13.3 g/dL
- Ht (24 h): 41.1%
- Lym (24 h): 76.4%
- MCH (24 h): 20.7 pg
- MCHC (24 h): 32.4%
- MCV (24 h): 63.9 fL
- Mono (24 h): 3.2%
- Neu (24 h): 18.4%
- PT (24 h): 13.1 s
- Plat (24 h): 127.4 x10_4/uL
- RBC (24 h): 642.4 x10_4/ul
- Ret (24 h): 7.4%
- WBC (24 h): 96.8 x10_2/uL
- KIDNEY_L (24 h): 0.9 g
- KIDNEY_R (24 h): 0.9 g
- KIDNEY_TOTAL (24 h): 1.8 g
- LIVER (24 h): 9.8 g
- A/G (24 h): 0.9
- ALP (24 h): 1626.2 IU/L
- ALT (24 h): 39.6 IU/L
- AST (24 h): 77.2 IU/L
- BUN (24 h): 14.6 mg/dL
- CRE (24 h): 0.2 mg/dL
- Ca (24 h): 10.9 mg/dL
- Cl (24 h): 106.4 meq/L
- DBIL (24 h): 0.012 mg/dL
- GLC (24 h): 186.2 mg/dL
- IP (24 h): 7.5 mg/dL
- K (24 h): 4.2 meq/L
- LDH (24 h): 98.2 IU/L
- Na (24 h): 141.6 meq/L
- PL (24 h): 140 mg/dL
- RALB (24 h): 2.5 g/dL
- TBIL (24 h): 0.058 mg/dL
- TC (24 h): 74 mg/dL
- TG (24 h): 96.8 mg/dL
- TP (24 h): 5.4 g/dL
- gamma-GTP (24 h): 1 IU/L
